Patent US20170190691A1, “NOVEL 5-ACYLSULFANYL-HISTIDINE COMPOUNDS AS PRECURSORS OF THE CORRESPONDING 5-SULFANYLHISTIDINES AND THEIR DISULFIDES” (TETRAGEDRON, priority 2014, published 2017)

What was measured:
Assay type in all cases: physicochemical
[1] = Analytical monitoring by HPLC of the hydrolysis of compound 3 and oxidation in situ into compound 27, aqueous fraction at 40° C.; details: water; for % hydrolysis: HPLC
Protocol: e) Analytical monitoring by HPLC of the hydrolysis of the 5-acylsulfanyl compound 3 and oxidation in situ into compound 27
Compound 3 is prepared and purified by column as described in Example 5, using an ethyl acetate/ethanol gradient, followed by elution with water. The aqueous fraction containing the pure compound 3 is placed in a water bath at 40° C. and heated under stirring for two days. Samples are collected every hour, and the mixture is analyzed by HPLC.

[2] = Analytical monitoring by 1H NMR and HPLC-ELSD of the hydrolysis of compound 3 into compound 26 in the presence of a thiol (3-mercaptopropionic acid), D2O, 40° C.; details: 5 equivalents 3-mercaptopropionic acid
Protocol: b) Analytical monitoring by ^1H NMR of the hydrolysis of the 5-acylsulfanyl compound 3 into the compound L-5-sulfanyl-α,N,N,N(trimethyl)-histidine (Compound 26) in the presence of a thiol
Compound 3 is prepared and purified by column as described in Example 5. 100 mg (0.33 mmoles, 1 eq.) of compound 3 are dissolved in 2.4 mL of D2O. 172 mg of 3-mercaptopropionic acid (142 μL, 5 equivalents) are added, and the solution is heated at 40° C. The conversion is monitored by ^1H NMR and by HPLC-ELSD. The yield of hydrolysis of compound 3 is 90% after 3 h (monitored by ^1H NMR). Compound 26 is formed after 3 h 30 with a yield of 97% (HPLC-ELSD).

[3] = Analytical monitoring by 1H NMR of the hydrolysis of compound 3 and oxidation in situ into compound 27, D2O at ambient temperature; details: for % hydrolysis: 1H NMR
Protocol: f) Analytical monitoring by ^1H NMR of the hydrolysis of the 5-acylsulfanyl compound 3 and oxidation in situ into compound 27
Compound 3 is prepared and purified by column as described in Example 5. 30 mg of compound 3 are dissolved in 600 μL of D2O, the solution is transferred to an NMR tube, which is stored at ambient temperature. The conversion is monitored by ^1H NMR.

[4] = Hydrolysis of compound 3 in water at 90° C. in air, monitored by HPLC; details: after 7 h
Protocol: c) Preparation of the compound L-5-sulfanyl-α,N,N,N(trimethyl)-histidine (compound 26) by hydrolysis of the 5-acylsulfanyl compound 3
Compound 3 is prepared and purified by column as described in Example 5. 170 mg (0.6 mmoles) of compound 3 are dissolved in 10 mL of water, and the solution is heated at 90° C. in air for 7 h. The conversion is monitored by HPLC. The hydrolysis of compound 3 is complete after 7 h. The solution is evaporated to dryness. The residue is dissolved in a mixture of 5 mL of methanol and 93 mg (0.6 mmol) of dithiothreitol. After stirring for 4 h under an inert atmosphere, 2 mL of ethanol are added. A precipitate forms immediately, which is filtered and washed with ethanol (2×2 mL), then with ethyl ether (2×2 mL). After drying, 104 mg (72%) of L-5-sulfanyl-α,N,N,N(trimethyl)-histidine are obtained in the form of a beige powder.

Structure (SMILES): CC(=O)Sc1nc[nH]c1C[C@@H](C(=O)[O-])[N+](C)(C)C [Compound 3, L-5-acetylsulfanyl-α,N,N,N(trimethyl)-histidine]
- hydrolysis of compound 3 (extent, in words) ([1]; after 2 days): nearly complete
- yield of compound 27 from hydrolysis and in situ oxidation of compound 3 ([1]; after 2 days): 80%
- % hydrolysis ([1]; t = 0 h): 0%
- % hydrolysis ([1]; t = 2 j): 95%
- % hydrolysis ([1]; t = 2 h): 7%
- % hydrolysis ([1]; t = 4 h): 21%
- % hydrolysis ([1]; t = 6 h): 38%
- % hydrolysis ([1]; t = 8 h): 60%
- % hydrolysis ([1]; t = 18 h): 85%
- yield of compound 26 formed from compound 3 ([2]; after 3 h 30, HPLC-ELSD): 97%
- yield of hydrolysis of compound 3 ([2]; after 3 h, 1H NMR): 90%
- hydrolysis of compound 3 (extent, in words) ([3]; after 2 days): nearly complete
- % hydrolysis ([3]; t = 0 h): 0%
- % hydrolysis ([3]; t = 2 j): 86%
- % hydrolysis ([3]; t = 2 h): 19%
- % hydrolysis ([3]; t = 10 h): 26%
- hydrolysis of compound 3 (extent, in words) [4]: complete
